Results reported in article PMC3311629, “Rational Design and Characterization of D-Phe-Pro-D-Arg-Derived Direct Thrombin Inhibitors” (PLoS ONE, 2012).
Square brackets hold non-standard residues; d marks the D form. Peptide text beside a SMILES is read from it. 2Thi = N[C@@H](Cc1cccs1)C(=O)O

Tests used:
[1] = molecular target: bovine α-thrombin (Bos taurus, UniProt P00735); assay: Inhibition of thrombin's hydrolytic activity towards chromogenic substrate S2238; type: biochemical; settings: bovine α-thrombin 5 nM, 25°C, pH 7.46
Experimental: In a first instance, the inhibitory constants (Ki) for all peptides were determined using pseudo-first order kinetics. […] Substrate hydrolysis at 25°C, in sodium phosphate buffer pH 7.46, with 0.2 M NaCl and 50 µg/ml bovine serum albumin was monitored in real-time at 405 nm using a thermostated spectrophotometer (Cary), assuring that the hydrolysis of the chromogenic substrate was complete. Each kinetic trace was fitted to a first-order reaction mathematical model (At = A0*e^−kt or At = A0+a*(1−e^−kt)). The Ki was determined from the equation Ki = [I]/(kobs uninhibited/kobs inhibited−1), where kobs is the pseudo-first order rate constant and [I] is the molar inhibitor concentration. For the inhibitors that were structurally characterized, the kinetic parameters of S2238 hydrolysis and the type of inhibition were determined using 5 nM bovine α-thrombin (Sigma) and varying concentrations of both substrate (0–200 µM) and peptide inhibitors (0–50 µM). The data was fitted to a competitive enzyme inhibition model using Prism5 (GraphPad Software) and the built-in nonlinear regression global analysis package to determine the values for Ki, KM and Vmax. The goodness of fit was assessed using the built-in statistical analysis package, which enabled the calculation of R^2 values.

[2] = molecular target: α-thrombin (Bos taurus, UniProt P00735); assay: Inhibitor resistance to proteolysis by thrombin (ESI mass spectrometry); type: in vitro ADME; settings: 20 µM peptide with 20 µM α-thrombin, 24 h, room temperature, pH 7.46, mass spectrometry
Experimental: After 24 h incubation, aliquots were removed and the reaction was quenched with 0.1% TFA. The samples were analyzed on an ESI spectrometer run in the positive mode. As the expected molecular mass of the tripeptide resulting from the hydrolysis of the D-Arg-P1′ peptide bond is 418.5 Da, spectra were acquired in the 400–1000 Da window.

[3] = molecular target: T1, factor Xa (Homo sapiens, UniProt P00742); assay: Inhibitory activity towards factor Xa (chromogenic substrate S2222); type: biochemical; settings: for Ki: factor Xa 15 nM, S2222 0.18 mM, Ki = IC50/(1+S/KM), competitive mechanism assumed; for selectivity for thrombin versus factor Xa: ratio of Ki values, thrombin vs factor Xa
T1 construct: Factor Xa (15 nM; American Diagnostica); purchased American Diagnostica
T1 sequence (P00742 235-488 limits assumed): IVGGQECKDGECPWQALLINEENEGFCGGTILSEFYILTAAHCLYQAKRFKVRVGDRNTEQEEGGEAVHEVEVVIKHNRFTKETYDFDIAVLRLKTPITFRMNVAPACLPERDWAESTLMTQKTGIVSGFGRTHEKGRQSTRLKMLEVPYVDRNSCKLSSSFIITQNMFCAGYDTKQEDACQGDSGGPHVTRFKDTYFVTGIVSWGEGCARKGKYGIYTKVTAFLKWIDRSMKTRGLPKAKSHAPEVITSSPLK
T1 sequence (P00742 41-179 partner limits assumed): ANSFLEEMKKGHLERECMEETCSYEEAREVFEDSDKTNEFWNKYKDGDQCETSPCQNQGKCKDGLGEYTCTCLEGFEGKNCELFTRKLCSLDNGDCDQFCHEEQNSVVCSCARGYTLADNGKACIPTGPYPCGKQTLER
Experimental: (§1) Factor Xa (15 nM; American Diagnostica) or trypsin (25 nM; Sigma) was incubated for 15 min at room temperature with 20–1600 µM of fPrI, fPrC or fPrt in 50 mM Tris-HCl pH 8.0 and 150 mM NaCl (factor Xa) or 50 mM Tris-HCl pH 8.0, 150 mM NaCl and 160 mM CaCl2 prior to substrate addition. The chromogenic substrates were S2222 (Nα-Benzoyl-L-isoleucyl-L-glutamyl-glycyl-L-arginine-4-nitroanilide hydrochloride; American Diagnostica) for factor Xa or BAPNA (Nα-Benzoyl-L-arginine-4-nitroanilide hydrochloride; Sigma) for trypsin. Substrate hydrolysis was monitored at 405 (S2222) or 410 nm (BAPNA) using a thermostated spectrophotometer (Cary). IC50 values were determined using the built in equation provided by Prism5 (GraphPad Software).

[4] = molecular target: T2, trypsin (Bos taurus, UniProt P00760); assay: Inhibitory activity towards trypsin (chromogenic substrate BAPNA); type: biochemical; settings: for selectivity for thrombin versus trypsin: ratio of Ki values, thrombin vs trypsin; for Ki: trypsin 25 nM, BAPNA 1.84 mM, Ki = IC50/(1+S/KM), competitive mechanism assumed
T2 sequence (P00760 24-246): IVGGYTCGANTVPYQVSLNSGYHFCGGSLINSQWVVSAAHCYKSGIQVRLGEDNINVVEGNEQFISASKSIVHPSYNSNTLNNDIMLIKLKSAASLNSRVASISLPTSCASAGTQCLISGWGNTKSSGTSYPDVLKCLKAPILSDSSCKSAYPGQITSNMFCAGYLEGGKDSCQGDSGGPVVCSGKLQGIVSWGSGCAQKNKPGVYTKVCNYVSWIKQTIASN
Experimental: as §1

Structure (SMILES) | Ki [1] [µM] | also measured
CC(C)C[C@H](NC(=O)[C@@H](CCCNC(=N)N)NC(=O)[C@@H]1CCCN1C(=O)[C@H](N)Cc1ccccc1)C(N)=O [Peptide 25, D-Phe-Pro-D-Arg-Leu] (H-[dF]P[dR]L-NH2) | 20.6 ± 4.5 | –
N=C(N)NCCC[C@@H](NC(=O)[C@@H]1CCCN1C(=O)[C@H](N)Cc1ccccc1)C(=O)N1CCC[C@H]1C(N)=O [Peptide 9, D-Phe-Pro-D-Arg-Pro] (H-[dF]P[dR]P-NH2) | 89.5 ± 5.5 | –
N=C(N)NCCC[C@@H](NC(=O)[C@@H]1CCCN1C(=O)[C@H](N)Cc1ccccc1)C(=O)N[C@@H](CCC(=O)O)C(N)=O [Peptide 6, D-Phe-Pro-D-Arg-Glu] (H-[dF]P[dR]E-NH2) | 556 ± 89.6 | –
N=C(N)NCCC[C@@H](NC(=O)[C@@H]1CCCN1C(=O)[C@H](N)Cc1ccccc1)C(=O)NCC(N)=O [Peptide 3, D-Phe-Pro-D-Arg-Gly] (H-[dF]P[dR]G-NH2) | 5.9 ± 0.2 | –
C[C@H](NC(=O)[C@@H](CCCNC(=N)N)NC(=O)[C@@H]1CCCN1C(=O)[C@H](N)Cc1ccccc1)C(N)=O [Peptide 1, D-Phe-Pro-D-Arg-Ala] (H-[dF]P[dR]A-NH2; N-terminus assumed) | 16.6 ± 0.8 | –
N=C(N)NCCC[C@@H](NC(=O)[C@@H]1CCCN1C(=O)[C@H](N)Cc1ccccc1)C(=O)N[C@@H](Cc1ccccc1)C(N)=O [Peptide 8, D-Phe-Pro-D-Arg-Phe] (H-[dF]P[dR]F-NH2) | 250 ± 20 | –
C[C@@H](O)[C@H](NC(=O)[C@@H](CCCNC(=N)N)NC(=O)[C@@H]1CCCN1C(=O)[C@H](N)Cc1ccccc1)C(N)=O [Peptide 15, D-Phe-Pro-D-Arg-Thr] (H-[dF]P[dR]T-NH2) | 12.5 ± 0.35 | –
N=C(N)NCCC[C@@H](NC(=O)[C@@H]1CCCN1C(=O)[C@H](N)Cc1ccccc1)C(=O)N[C@H](CCC(N)=O)C(N)=O [Peptide 22, D-Phe-Pro-D-Arg-D-Gln] (H-[dF]P[dR][dQ]-NH2) | 19.3 ± 0.6 | –
N=C(N)NCCC[C@@H](NC(=O)[C@@H]1CCCN1C(=O)[C@H](N)Cc1ccccc1)C(=O)N[C@@H](Cc1cccs1)C(N)=O [Peptide 27, D-Phe-Pro-D-Arg-Thi] (H-[dF]P[dR][2Thi]-NH2) | 8.16 ± 0.35 | –
C[C@H](O)[C@@H](NC(=O)[C@@H](CCCNC(=N)N)NC(=O)[C@@H]1CCCN1C(=O)[C@H](N)Cc1ccccc1)C(N)=O [Peptide 16, D-Phe-Pro-D-Arg-D-Thr] (H-[dF]P[dR][dT]-NH2) | 0.92 ± 0.08 | Stability against thrombin hydrolysis (cleavage product D-Phe-Pro-D-Arg, 418.5 Da) [2]: could not be identified; Ki [3]: 103 ± 1.44 µM; selectivity for thrombin versus factor Xa [3]: 110 fold; selectivity for thrombin versus trypsin [4]: 420 fold; Ki [4]: 389 ± 5.5 µM
N=C(N)NCCC[C@@H](NC(=O)[C@@H]1CCCN1C(=O)[C@H](N)Cc1ccccc1)C(=O)N[C@@H](CCCCN)C(N)=O [Peptide 5, D-Phe-Pro-D-Arg-Lys] (H-[dF]P[dR]K-NH2) | 66.6 ± 6.5 | –
CC(C)[C@H](NC(=O)[C@@H](CCCNC(=N)N)NC(=O)[C@@H]1CCCN1C(=O)[C@H](N)Cc1ccccc1)C(N)=O [Peptide 13, D-Phe-Pro-D-Arg-Val] (H-[dF]P[dR]V-NH2) | 56.3 ± 1.5 | –
C[C@@H](NC(=O)[C@@H](CCCNC(=N)N)NC(=O)[C@@H]1CCCN1C(=O)[C@H](N)Cc1ccccc1)C(N)=O [Peptide 2, D-Phe-Pro-D-Arg-D-Ala] (H-[dF]P[dR][dA]-NH2) | 2.06 ± 0.04 | –
CC(C)C[C@@H](NC(=O)[C@@H](CCCNC(=N)N)NC(=O)[C@@H]1CCCN1C(=O)[C@H](N)Cc1ccccc1)C(N)=O [Peptide 26, D-Phe-Pro-D-Arg-D-Leu] (H-[dF]P[dR][dL]-NH2) | 4.13 ± 0.24 | –
N=C(N)NCCC[C@@H](NC(=O)[C@@H]1CCCN1C(=O)[C@H](N)Cc1ccccc1)C(=O)N[C@@H](CS)C(N)=O [Peptide 19, D-Phe-Pro-D-Arg-Cys] (H-[dF]P[dR]C-NH2) | 16.5 ± 1.5 | Stability against thrombin hydrolysis (cleavage product D-Phe-Pro-D-Arg, 418.5 Da) [2]: could not be identified; Ki [3]: 41.4 ± 2.6 µM; selectivity for thrombin versus factor Xa [3]: 3 fold; selectivity for thrombin versus trypsin [4]: 20 fold; Ki [4]: 377.1 ± 3.6 µM
N=C(N)NCCC[C@H](NC(=O)[C@@H](CCCNC(=N)N)NC(=O)[C@@H]1CCCN1C(=O)[C@H](N)Cc1ccccc1)C(N)=O [Peptide 4, D-Phe-Pro-D-Arg-Arg] (H-[dF]P[dR]R-NH2) | 91.1 ± 8.2 | –
N=C(N)NCCC[C@@H](NC(=O)[C@@H]1CCCN1C(=O)[C@H](N)Cc1ccccc1)C(=O)N[C@@H](Cc1c[nH]cn1)C(N)=O [Peptide 7, D-Phe-Pro-D-Arg-His] (H-[dF]P[dR]H-NH2) | 122 ± 9.5 | –
CSCC[C@H](NC(=O)[C@@H](CCCNC(=N)N)NC(=O)[C@@H]1CCCN1C(=O)[C@H](N)Cc1ccccc1)C(N)=O [Peptide 28, D-Phe-Pro-D-Arg-Met] (H-[dF]P[dR]M-NH2) | 37.2 ± 2.5 | –
N=C(N)NCCC[C@@H](NC(=O)[C@@H]1CCCN1C(=O)[C@H](N)Cc1ccccc1)C(=O)N[C@H](CS)C(N)=O [Peptide 20, D-Phe-Pro-D-Arg-D-Cys] (H-[dF]P[dR][dC]-NH2) | 2.4 ± 0.05 | –
N=C(N)NCCC[C@@H](NC(=O)[C@@H]1CCCN1C(=O)[C@H](N)Cc1ccccc1)C(=O)N[C@@H](Cc1ccc(O)cc1)C(N)=O [Peptide 12, D-Phe-Pro-D-Arg-Tyr] (H-[dF]P[dR]Y-NH2) | 50.5 ± 3.4 | –
N=C(N)NCCC[C@@H](NC(=O)[C@@H]1CCCN1C(=O)[C@H](N)Cc1ccccc1)C(=O)N[C@@H](Cc1c[nH]c2ccccc12)C(N)=O [Peptide 11, D-Phe-Pro-D-Arg-Trp] (H-[dF]P[dR]W-NH2) | 65.6 ± 7.2 | –
N=C(N)NCCC[C@@H](NC(=O)[C@@H]1CCCN1C(=O)[C@H](N)Cc1ccccc1)C(=O)N1CCC[C@@H]1C(N)=O [Peptide 10, D-Phe-Pro-D-Arg-D-Pro] (H-[dF]P[dR][dP]-NH2) | 489 ± 113 | –
CC(C)[C@@H](NC(=O)[C@@H](CCCNC(=N)N)NC(=O)[C@@H]1CCCN1C(=O)[C@H](N)Cc1ccccc1)C(N)=O [Peptide 14, D-Phe-Pro-D-Arg-D-Val] (H-[dF]P[dR][dV]-NH2) | 2.17 ± 0.6 | –
N=C(N)NCCC[C@@H](NC(=O)[C@@H]1CCCN1C(=O)[C@H](N)Cc1ccccc1)C(=O)N[C@@H](CCC(N)=O)C(N)=O [Peptide 21, D-Phe-Pro-D-Arg-Gln] (H-[dF]P[dR]Q-NH2) | 43.1 ± 2.6 | –
N=C(N)NCCC[C@@H](NC(=O)[C@@H]1CCCN1C(=O)[C@H](N)Cc1ccccc1)C(=O)N[C@H](CO)C(N)=O [Peptide 18, D-Phe-Pro-D-Arg-D-Ser] (H-[dF]P[dR][dS]-NH2) | 12.3 ± 0.08 | –
CC[C@H](C)[C@H](NC(=O)[C@@H](CCCNC(=N)N)NC(=O)[C@@H]1CCCN1C(=O)[C@H](N)Cc1ccccc1)C(N)=O [Peptide 23, D-Phe-Pro-D-Arg-Ile] (H-[dF]P[dR]I-NH2) | 7.7 ± 0.73 | Stability against thrombin hydrolysis (cleavage product D-Phe-Pro-D-Arg, 418.5 Da) [2]: could not be identified; Ki [3]: 7300 µM; selectivity for thrombin versus trypsin [4]: 12 fold; Ki [4]: 90.2 ± 2.8 µM
CC[C@@H](C)[C@@H](NC(=O)[C@@H](CCCNC(=N)N)NC(=O)[C@@H]1CCCN1C(=O)[C@H](N)Cc1ccccc1)C(N)=O [Peptide 24, D-Phe-Pro-D-Arg-D-Ile] (H-[dF]P[dR][dI]-NH2) | 7.44 ± 0.5 | –
N=C(N)NCCC[C@@H](NC(=O)[C@@H]1CCCN1C(=O)[C@H](N)Cc1ccccc1)C(=O)N[C@@H](CO)C(N)=O [Peptide 17, D-Phe-Pro-D-Arg-Ser] (H-[dF]P[dR]S-NH2) | 17.1 ± 0.8 | –
